From patent publication US20230176066A1, “PLASMON-ENHANCED FLUORO-DOT ASSAYS” (Washington University, priority 2021, published 2023)

Columns and labels:
JAWS II dendritic cells [1] = assay: Fluoro-dot assay on JAWS II DC: TNFα secretion after LPS stimulation; assay type: cell-based, Mouse; conditions: for TNFα secretion: 90 minutes incubation
Protocol: Mouse TNFα DuoSet ELISA kits (R&D systems, catalog number DY410, lot number P189768) was used to perform the assays. Glass-bottom 96-well black plate (P96-1.5H-N, Cellvis, Mountain View, USA) was first coated with capture antibodies (0.8 μg/ml in PBS), 100 μl/well and incubated overnight at 4° C. The plate was washed three times with 1×PBS and then blocked with 200 μl of reagent diluent (1×PBS in 1% BSA, 0.2 μm filtered). After blocking, the plates were washed three times with PBS. Mouse JAWS II dendritic cells (immature, monocytes ATCC® CRL11904™) were cultured in alpha minimum essential medium with ribonucleosides, deoxyribonucleosides, 4 mM L-glutamine, 1 mM sodium pyruvate and 5 ng/ml murine GM-CSF, 10% heat-inactivated fetal bovine serum, 50 IU/ml of penicillin, 50 μg/ml of streptomycin. JAWS II DCs were seeded on the capture coated plates, at the seeding density of 5,000 cells/well in 100 μl of medium followed by incubation at 37° C. in 5% CO2 for 30 minutes. All the non-adherent cells were removed by taking out the medium and replacing it with 100 μl of fresh medium containing varying amounts of LPS ranging from (0 to 2000 ng/ml). The cells were incubated at 37° C. in 5% CO2 for varying durations from 20 minutes to 90 minutes.
(§1) After completion of the incubation duration, the medium was decanted, and the cells were fixed using 100 μl/well of 4% neutral buffered formalin (NBF) for 20 minutes at room temperature. The plates were then washed three times with PBS and incubated with biotinylated detection antibodies, 75 ng/ml in reagent diluent for 2 hours at room temperature. The plates were washed three times using PBS and then were incubated with 100 μl/well of streptavidin Cy5-plasmonic-fluors (extinction 0.5) for 30 minutes at room temperature in dark. For comparison, 100 μl of 1 μg/ml of streptavidin-Cy5 (Thermo Fisher Scientific, catalog number SA1011) as conventional fluorophore and 1 nM of streptavidin QD655™ (Thermo Fisher Scientific, catalog number Q10123MP) was added to each well for 30 minutes at room temperature in dark. The plates were washed with PBS three times, and the nuclei of the cells were stained with 300 nM DAPI solution (Millipore Sigma, St. Louis, Mo., USA) for 5 minutes at room temperature in dark. Finally, the plates were washed three times in PBS and imaged using Nikon TsR2 epifluorescence microscope. For ELISA, culture supernatants of JAWS II DC after treatment described above were collected and TNFα concentration was measured using mouse TNFα DuoSet ELISA kits (R&D systems, catalog number DY410, lot number P189768) as per manufacturer's instructions.

JAWS II dendritic cells [2] = assay: Multiplexed Fluoro-dot assay: TNFα and IL-6 secretion after LPS stimulation; assay type: cell-based, Mouse; conditions: 200 ng/ml LPS
Protocol: Mouse TNFα DuoSet ELISA kits (R&D systems, catalog number DY410, lot number P189768) and mouse IL-6 DuoSet ELISA kit (R&D systems, catalog number DY406, lot number P234212) were used to perform the assays. Glass-bottom 96-well black plate (P96-1.5H-N, Cellvis, Mountain View, USA) was first coated with both TNFα capture antibody (0.8 μg/ml in PBS) and IL-6 capture antibody (2 μg/ml in PBS), 100 μ/well, and incubated overnight at 4° C. The plate was washed three times with 1×PBS and then blocked with 200 μl of reagent diluent (1×PBS in 1% BSA, 0.2 μm filtered). After blocking the plates were washed three times with PBS. JAWS II dendritic cells (ATCC® CRL-11904™) were cultured in alpha minimum essential medium with ribonucleosides, deoxyribonucleosides, 4 mM L-glutamine, 1 mM sodium pyruvate and 5 ng/ml murine GM-CSF, 10% heat-inactivated fetal bovine serum, 50 IU/ml of penicillin, 50 μg/ml of streptomycin. JAWS II DCs were seeded on the capture coated plates, at the seeding density of 5,000 cells/well in 100 μl of medium followed by incubation at 37° C. in 5% CO2 for 30 minutes. All the non-adherent cells were removed by taking out the medium and replacing it with 100 μl of fresh medium containing 200 ng/ml of LPS. The cells were incubated at 37° C. in 5% CO2 for 30 minutes, 1 hour, 2 hours, and 3 hours. The wells with medium and without LPS were incubated for 3 hours. […]

JAWS II dendritic cells [3] = assay: ELISA of culture supernatant of JAWS II DC after LPS stimulation; assay type: cell-based, Mouse; conditions: low dose and short duration of stimulation
Protocol: as §1

[4] = Fluorescence intensity vs. molar concentration of labels; assay type: physicochemical; conditions: linear regression
Protocol: Streptavidin-conjugated Cy3-plasmonic-fluor (PF550™ ultrabright fluor) and streptavidin-conjugated Cy5-plasmonic-fluor (PF650™ ultrabright fluor) were purchased from Auragent Biosceince LLC (St. Louis, USA). The extinction was measured using a Shimadzu UV-1800 spectrophotometer. SEM images were obtained using a FEI Nova 2300 field-emission scanning electron microscope at an acceleration voltage of 10 kV. TEM images were obtained using a JEOL JEM-2100F field emission instrument. A drop of aqueous solution was dried on a carbon-coated grid, which had been made hydrophilic by glow discharge. Molar concentrations of plasmonic-fluors was calculated as described previously. Fluorescence intensity was recorded using Azure Biomolecular Imager: Sapphire RGBNIR (Azure Biosystems, Inc. Dublin, USA) and the images were analyzed using Licor Image Studio Lite.
For analyzing the statistical difference between more than two groups, one-way analysis of variance (ANOVA) with a post-hoc Tukey's honest significance test was used. Statistical significance of the data was calculated at 95% (p<0.05) confidence intervals. All values are expressed as mean±standard deviation. GraphPad Prism 6 was used for all statistical analysis. Linear regression was used to calculate the equation and to derive the slope of fluorescence intensity vs. molar concentration graph. […]

## lipopolysaccharide [LPS]
JAWS II dendritic cells [1]; 2 ng/ml LPS
  TNFα secretion: no significant secretion of TNFα
JAWS II dendritic cells [1]; 20 ng/ml LPS
  TNFα secretion: Substantial secretion
JAWS II dendritic cells [1]; 200 ng/ml LPS
  duration of treatment at which difference between treated and untreated cells was statistically significant: more than 40 minutes
  incubation time after which TNFα secretion was detectable: 40 min
JAWS II dendritic cells [1]; 20, 200, 2000 ng/ml LPS, 90 minutes
  TNFα secretion with increasing LPS concentration: increase in TNFα secretion
JAWS II dendritic cells [1]; 90 min incubation, number of clusters and particles/cluster
  LPS dose at which difference between treated and untreated cells was statistically significant: higher than 20 ng/ml
JAWS II dendritic cells [2]; 30 minutes to 3 hours
  secretion of TNFα and IL-6 with increasing duration of LPS incubation: increase in the overall secretion of both cytokines
JAWS II dendritic cells [2]; 2 hours and 3 hours
  relative secretion of IL-6 and TNFα at longer time durations: more predominant IL-6 secretion as compared to TNFα
JAWS II dendritic cells [3]
  amount of TNFα secretion by ELISA: below its detection limit

## Cy5-plasmonic-fluor: Streptavidin-conjugated Cy5 plasmon-enhanced fluorescent nanolabel purchased from Auragent Bioscience
[4]
  slope of fluorescence intensity vs. molar concentration, steeper than that of the conventional fluorophore (Cy5 or Cy3): ~16,000 fold
